Laboratory results as given in patent US5153226A, “Acat inhibitors for treating hypocholesterolemia” (Warner-Lambert Company, priority 1990, dated 1992).

Tests used:
[1] = molecular target: T1, acyl-CoA:cholesterol acyltransferase (ACAT) (Oryctolagus cuniculus, UniProt G1SFD9); test: in vitro ACAT inhibition, acylation of cholesterol by oleic acid in tissue preparation containing rabbit intestinal microsomes; assay type: biochemical; details: concentration required to inhibit 50% expression of the enzyme
T1 construct: tissue preparation containing rabbit intestinal microsomes; from tissue; host or cells: rabbit intestinal microsomes
T1 sequence (G1SFD9 1-524): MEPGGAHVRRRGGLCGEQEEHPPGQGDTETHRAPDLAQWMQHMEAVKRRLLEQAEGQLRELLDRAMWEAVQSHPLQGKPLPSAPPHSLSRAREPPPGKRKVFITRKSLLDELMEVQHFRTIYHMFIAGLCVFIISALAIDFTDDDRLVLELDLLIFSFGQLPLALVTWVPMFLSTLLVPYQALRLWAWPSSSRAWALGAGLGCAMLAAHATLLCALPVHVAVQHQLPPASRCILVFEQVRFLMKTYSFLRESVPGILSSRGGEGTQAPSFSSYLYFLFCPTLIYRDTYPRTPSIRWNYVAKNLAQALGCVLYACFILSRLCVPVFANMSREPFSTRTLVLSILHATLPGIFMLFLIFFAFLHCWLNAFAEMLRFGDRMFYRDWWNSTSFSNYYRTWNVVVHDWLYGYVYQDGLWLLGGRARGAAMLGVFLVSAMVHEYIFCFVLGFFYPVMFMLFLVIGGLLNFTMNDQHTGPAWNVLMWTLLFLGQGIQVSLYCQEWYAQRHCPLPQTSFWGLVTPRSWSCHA
Procedure: The ability of representative compounds of the present invention to inhibit ACAT was measured using an in vitro test more fully described in Field, F. J. and Salone, R. G., Biochemica et Biophysica 712: 557-570 (1982). The test assesses the ability of a test compound to inhibit the acylation of cholesterol by oleic acid by measuring the amount of radio-labeled cholesterol oleate formed from radiolabeled oleic acid in a tissue preparation containing rabbit intestinal microsomes.
The data appear in Table 1 where they are expressed as IC50 values; i.e. the concentration of test compound required to inhibit 50% […] of the enzyme.

cholesterol = test: in vivo screen APCC, cholesterol in rats fed PCC diet with cholic acid; design: species or system male Sprague-Dawley rats; details: APCC rats dosed at 4 PM, PCC diet with 1% or 0.5% cholic acid overnight, blood cholesterol at 8 AM; dose not given
Excerpt: In one in vivo screen, designated APCC, male Sprague-Dawley rats (200 to 225 g) were randomly divided into treatment groups and dosed at 4 PM with either vehicle (CMC/Tween) or suspensions of compounds in vehicle. The normal, chow diet was then replaced with the PCC diet (RR 740-02122) with either 1% or 0.5% cholic acid, as indicated. The rats consumed this diet ad libitum during the night and were sacrificed at 8 AM to obtain blood samples for cholesterol analysis using standard procedures (RR 740-02122). Statistical differences between mean cholesterol values for the same vehicle were determined using analysis of variance followed by Fisher's least significant test.

| Structure (SMILES) | IC50 [1] [µM] | % Change (mg/dl) (cholesterol) [%] |
| --- | --- | --- |
| Cc1ccc(S(=O)(=O)N[C@@H](Cc2ccccc2)C(=O)Nc2c(C(C)C)cccc2C(C)C)cc1 [Example 52, (S)-N-[2,6-bis(1-Methylethyl)phenyl]-α-[[(4-methylphenyl)sulfonyl]amino]benzenepropanamide] | 0.96 | – |
| CC(C)c1cccc(C(C)C)c1NC(=O)CN(CC1(c2ccccc2)CCCC1)C(=S)Nc1ccccc1 [Example 10, N-[2,6-bis(1-Methylethyl)phenyl]-2-[[(phenylamino)thioxomethyl][(1-phenylcyclopentyl)methyl]amino]acetamide] | 0.1 | -30 |
| CC(C)c1cccc(C(C)C)c1NC(=O)CNC(c1ccccc1)c1ccccc1 [Example 4, N-[2,6-bis(1-Methylethyl)phenyl]-2-[(diphenylmethyl)amino]acetamide] | 0.055 | -45 |
| CC(C)c1cccc(C(C)C)c1NC(=O)CN(CC1(c2ccccc2)CCCC1)C(=O)Nc1ccccc1 [Example 11, N-(2,6-bis(1-Methylethyl)phenyl]-2-[[(phenylamino)carbonyl][(1-phenylcyclopentyl)methyl]amino]-acetamide] | – | -3 |
| Cc1ccc(S(=O)(=O)N(CC(=O)Nc2c(C(C)C)cccc2C(C)C)CC2(c3ccccc3)CCCC2)cc1 [Example 14, N-[2,6-bis(1-Methylethyl)phenyl]-2-[[(4-methylphenyl)sulfonyl][(1-phenylcyclopentyl)methyl]amino]acetamide] | – | -24 |

The next lines start with results.

| IC50 [1] [µM] | Structure (SMILES) | % Change (mg/dl) (cholesterol) [%] |
| --- | --- | --- |
| 1.05 | CC(C)c1cccc(C(C)C)c1NC(=O)[C@H](Cc1ccc(O)cc1)NC(=O)OC(C)(C)C [Example 21, (S)-1,1-Dimethylethyl[2-[[2,6-bis-(1-methylethyl)phenyl]amino]-1-[(4-hydroxyphenyl)-methyl]-2-oxoethyl]carbamate] | – |
| 0.35 | CC(C)c1cccc(C(C)C)c1NC(=O)[C@H](Cc1ccccc1)NC(=O)OC(C)(C)C [Example 41, (S)-α-N-(2,6-Diisopropylphenyl)benzenepropanamide] | – |
